ChEMBL document CHEMBL1201862, “PubChem BioAssay data set” (2004)
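All cell lines were grown in 96-well plates and treated with compound for 48 hours. At the GI50, growth is halved.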 The source made the active and inactive calls. Cut-off read from the data, not from the text of the source: active = GI50 up to about 1.1 µM and inactive = higher.

Columns and labels:
Experiment in all cases: NCI-60 cell line screen, 48 h
[1] = tested on: MDA-MB-231
[2] = tested on: SN12C
[3] = tested on: HCC 2998
[4] = tested on: HOP-92
[5] = tested on: SW-620
[6] = tested on: HOP-62
[7] = tested on: U-251
[8] = tested on: Hs-578T
[9] = tested on: SF-268
[10] = tested on: RXF 393
[11] = tested on: CAKI-1
[12] = tested on: ACHN
[13] = tested on: SF-295
[14] = tested on: SK-MEL-28
[15] = tested on: LOX IMVI
[16] = tested on: SK-MEL-5
[17] = tested on: OVCAR-3
[18] = tested on: PC-3
[19] = tested on: A498
[20] = tested on: Malme-3M

Measured: GI50

CC1=CC(C/C(C)=C/COc2ccc3ccc(=O)oc3c2)OC1=O (stereo not drawn)
inactive: [1] 5.66 µM | [2] > 100 µM | [3] > 100 µM | [4] > 100 µM | [5] > 100 µM | [6] > 100 µM | [7] 90.4 µM | [8] > 100 µM | [9] > 100 µM | [10] > 100 µM | [11] > 100 µM | [12] > 100 µM | [13] > 100 µM | [14] > 100 µM | [15] > 100 µM | [16] 53.6 µM | [17] > 100 µM | [18] 68.9 µM

CCCc1c(O)nc2ccccc2c1O
inactive: [19] > 100 µM | [1] > 100 µM | [2] > 100 µM | [3] > 100 µM | [4] > 100 µM | [5] > 100 µM | [6] > 100 µM | [7] > 100 µM | [8] > 100 µM | [11] > 100 µM | [12] > 100 µM | [13] > 100 µM | [14] > 100 µM | [15] > 100 µM | [16] > 100 µM | [17] > 100 µM | [20] > 100 µM | [18] > 100 µM

NC(C(=O)OC(=O)c1ccccc1)C(=O)OC(=O)c1ccccc1
inactive: [19] > 100 µM | [1] > 100 µM | [2] > 100 µM | [5] > 100 µM | [6] > 100 µM | [7] > 100 µM | [8] 59.3 µM | [9] > 100 µM | [10] > 100 µM | [11] > 100 µM | [12] > 100 µM | [13] > 100 µM | [14] > 100 µM | [15] > 100 µM | [16] > 100 µM | [17] > 100 µM | [20] > 100 µM | [18] > 100 µM

Oc1ccc(-c2nc(-c3cccnc3)c(-c3ccc(F)cc3)[nH]2)cc1
inactive: [1] 18.9 µM | [2] 23.9 µM | [3] 19.8 µM | [5] 17.8 µM | [6] 21.6 µM | [7] 17.3 µM | [8] 20.9 µM | [9] 22.5 µM | [10] 17.6 µM | [11] 28.6 µM | [12] 20.5 µM | [13] 16.7 µM | [14] 19.9 µM | [15] 12.5 µM | [16] 16.3 µM | [17] 16.7 µM | [20] 17.5 µM | [18] 16.7 µM

CCOC(=O)C1(C(=O)OCC)CC(=O)[C@@]2(C1)OCC[C@H]1OC(=O)C[C@H]12
inactive: [19] > 100 µM | [1] > 100 µM | [2] > 100 µM | [3] > 100 µM | [4] > 100 µM | [5] > 100 µM | [6] > 100 µM | [7] > 100 µM | [8] > 100 µM | [9] > 100 µM | [11] > 100 µM | [12] > 100 µM | [13] > 100 µM | [14] > 100 µM | [15] > 100 µM | [16] > 100 µM | [17] > 100 µM | [20] > 100 µM | [18] > 100 µM

CC1=CC(O)CC(C)(C)C1/C=C/C(C)=C/C=C/C(C)=C/C=C/C=C(C)/C=C/C=C(C)/C=C/C1=C(C)CC(O)CC1(C)C (stereo not drawn)
inactive: [1] 13.5 µM | [3] 83.9 µM | [4] 21.4 µM | [5] 19.1 µM | [8] 80.5 µM | [10] 18.5 µM | [11] 23.2 µM | [12] 16.6 µM | [13] 23.9 µM | [14] 17.5 µM | [15] 56.1 µM | [16] 16.6 µM | [17] 17.3 µM | [20] 15.6 µM | [18] 23.2 µM

O=C1/C(=C/c2cccs2)NC(=S)N1CN1CCOCC1
inactive: [19] 42.9 µM | [1] > 100 µM | [2] > 100 µM | [4] > 100 µM | [5] > 100 µM | [6] > 100 µM | [7] > 100 µM | [8] > 100 µM | [9] > 100 µM | [12] > 100 µM | [13] > 100 µM | [14] > 100 µM | [15] > 100 µM | [16] > 100 µM | [17] > 100 µM | [18] > 100 µM

COC(=O)c1ccc(/C=C2\Oc3cc(O)ccc3C2=O)cc1
inactive: [1] 65.9 µM | [2] 53.8 µM | [3] > 100 µM | [5] 78.2 µM | [6] > 100 µM | [7] 48.8 µM | [8] 52.4 µM | [9] 66.1 µM | [10] 27.9 µM | [11] 68.5 µM | [12] 31.7 µM | [13] 36.8 µM | [14] 72.8 µM | [16] 67 µM | [17] 53.3 µM | [18] 91.4 µM
